# From US10633389B2, “CARM1 inhibitors and uses thereof” (Epizyme, Inc., priority 2013, dated 2020)
# System: asymmetric di-methyl PABP1 in RKO cells
# Assay: RKO methylation assay, In Cell Western (ICW) for asymmetric di-methyl PABP1
# Format: cell-based
# Details: Homo sapiens, RKO, Cellular potencies, ICW PABP1me2a
# Summary of the method: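 In-cell Western on fixed RKO cells after 48 h compound exposure: anti-asymmetric di-methyl PABP1 signal at 800 nm over DRAQ5 DNA signal at 700 nm. Percent inhibition set between DMSO wells and wells with 20 μM reference compound; IC50 curves fitted in triplicate.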
row,Structure (SMILES),IC50
1,CNCC(O)COc1cccc(-c2nc(NC3CCN(CC(F)F)CC3)c(C)c(-c3c(C)noc3C)n2)c1 (stereo not drawn) [Example 188-1a],< 5 µM
2,CNC[C@@H](O)COc1ccc(Cl)c(-c2nc(NC3CC(F)C3)c(C)c(-c3c(C)noc3C)n2)c1 (stereo partly drawn) [Example 188-3],< 5 µM
3,CCOC(=O)N1CCC(Nc2nc(-c3cccc(OCC(O)CNC)c3)nc(-c3c(C)noc3C)c2C)CC1 (stereo not drawn) [Example 189-1a],< 5 µM
4,CNC[C@@H](O)COc1ccc(Cl)c(-c2nc(NC3CC(F)(F)C3)c(C)c(-c3c(C)noc3C)n2)c1 [Example 189-3],< 5 µM
5,CCOC(=O)N1CCCC(Nc2nc(-c3cccc(OCC(O)CNC)c3)nc(-c3c(C)noc3C)c2C)C1 (stereo not drawn) [Example 190-1a],< 5 µM
6,CNC[C@@H](O)COc1ccc(Cl)c(-c2nc(-c3c(C)noc3C)c(C)c(N3Cc4cncnc4C3)n2)c1 [Example 190-3],< 5 µM
7,CCOC(=O)N1CCC(CNc2nc(-c3cccc(OCC(O)CNC)c3)nc(-c3c(C)noc3C)c2C)CC1 (stereo not drawn) [Example 191-1a],< 5 µM
8,CCO[C@@H]1CCC[C@H]1Nc1nc(-c2cc(OC[C@H](O)CNC)ccc2F)nc(-c2c(C)noc2C)c1C [Example 191-3],< 5 µM
9,CCS(=O)(=O)N1CCC(CNc2nc(-c3cccc(OCC(O)CNC)c3)nc(-c3c(C)noc3C)c2C)CC1 (stereo not drawn) [Example 192-1a],< 5 µM
10,CNC[C@@H](O)COc1ccc(Cl)c(-c2nc(-c3c(C)noc3C)c(C)c(N3Cc4nc(C)sc4C3)n2)c1 [Example 192-3],< 5 µM
11,CNCC(O)COc1cccc(-c2nc(NCC3CCCN(CC(F)F)C3)c(C)c(-c3c(C)noc3C)n2)c1 (stereo not drawn) [Example 193-1a],< 5 µM
12,CCOC(=O)N1CCCC(CNc2nc(-c3cccc(OCC(O)CNC)c3)nc(-c3c(C)noc3C)c2C)C1 (stereo not drawn) [Example 194-1a],< 5 µM
13,CNC[C@@H](O)COc1ccc(Cl)c(-c2nc(N[C@@H]3CCN(C)C[C@@H]3F)c(C)c(-c3c(C)noc3C)n2)c1 [Example 194-3],< 5 µM
14,CNCC(O)COc1cccc(-c2nc(NC3CCN(CC(F)F)C3)c(C)c(-c3c(C)noc3C)n2)c1 (stereo not drawn) [Example 195-1a],< 5 µM
15,CNC[C@@H](O)COc1ccc(Cl)c(-c2nc(N[C@H]3CCN(C4CC4)C[C@H]3F)c(Cl)c(-c3c(C)noc3C)n2)c1 [Example 195-3],< 5 µM
16,CCOC(=O)N1CCC(Nc2nc(-c3cccc(OCC(O)CNC)c3)nc(-c3c(C)noc3C)c2C)C1 (stereo not drawn) [Example 196-1a],< 5 µM
17,CNC[C@@H](O)COc1ccc(Cl)c(-c2nc(N[C@H]3CCO[C@H](C)C3)c(C)c(-c3c(C)noc3C)n2)c1 [Example 196-3],< 5 µM
18,CCS(=O)(=O)N1CCC(Nc2nc(-c3cccc(OCC(O)CNC)c3)nc(-c3c(C)noc3C)c2C)C1 (stereo not drawn) [Example 197-1a],< 5 µM
19,CNC[C@@H](O)COc1ccc(Cl)c(-c2nc(N[C@H]3CCO[C@H](C)C3)c(Cl)c(-c3c(C)noc3C)n2)c1 [Example 197-3],< 5 µM
20,CNCC(O)COc1cccc(-c2nc(NC3CCCN(S(C)(=O)=O)C3)c(C)c(-c3c(C)noc3C)n2)c1 (stereo not drawn) [Example 198-1a],< 5 µM
21,CNC[C@@H](O)COc1ccc(Cl)c(-c2nc(N[C@H]3CO[C@H](C)C3)c(C)c(-c3c(C)noc3C)n2)c1 [Example 198-3],< 5 µM
22,CNCC(O)COc1cccc(-c2nc(-c3c(C)noc3C)c(C)c(N3C[C@H](C)O[C@@H](C)C3)n2)c1 (stereo partly drawn) [Example 199-1a],< 5 µM
23,CNC[C@@H](O)COc1ccc(Cl)c(-c2nc(-c3c(C)noc3C)c(C)c(N3CCc4ncccc43)n2)c1 [Example 199-3],< 5 µM
24,CNCC(O)COc1cccc(-c2nc(-c3c(C)noc3C)c(C)c(N3CCOC(C)(C)C3)n2)c1 (stereo not drawn) [Example 200-1a],< 5 µM

row,Structure (SMILES),IC50
1,CNC[C@@H](O)COc1ccc(C(F)(F)F)c(-c2nc(NC3CCOCC3)c(C)c(-c3c(C)noc3C)n2)c1 [Example 200-3],< 5 µM
2,CNCC(O)COc1cccc(-c2nc(NC3CCCN(C(=O)OC)C3)c(C)c(-c3c(C)noc3C)n2)c1 (stereo not drawn) [Example 201-1a],< 5 µM
3,CNC[C@@H](O)COc1ccc(Cl)c(-c2nc(N[C@H]3CO[C@H](C)C3)c(Cl)c(-c3c(C)noc3C)n2)c1 [Example 201-3],< 5 µM
4,CNCC(O)COc1cccc(-c2nc(NC3CCN(C(=O)OC)CC3)c(Cl)c(-c3c(C)noc3C)n2)c1 (stereo not drawn) [Example 202-1a],< 5 µM
5,CNC[C@@H](O)COc1ccc(Cl)c(-c2nc(N[C@H]3CN(C(=O)OC)C[C@@H]3F)c(C)c(-c3c(C)noc3C)n2)c1 [Example 202-3],< 5 µM
6,CNCC(O)COc1cccc(-c2nc(NC3CCCN(CC(F)F)C3)c(C)c(-c3c(C)noc3C)n2)c1 (stereo not drawn) [Example 203-1a],< 5 µM
7,CNC[C@@H](O)COc1ccc(Cl)c(-c2nc(N[C@H]3CN(C4CC4)C[C@@H]3F)c(C)c(-c3c(C)noc3C)n2)c1 [Example 203-3],< 5 µM
8,CCS(=O)(=O)N1CCCC(Nc2nc(-c3cccc(OCC(O)CNC)c3)nc(-c3c(C)noc3C)c2C)C1 (stereo not drawn) [Example 204-1a],< 5 µM
9,CNC[C@@H](O)COc1ccc(C(F)(F)F)c(-c2nc(NC3CCN(C(=O)OC)CC3)c(C)c(-c3c(C)noc3C)n2)c1 [Example 204-3],< 5 µM
10,CNCC(O)COc1cccc(-c2nc(NCC3CCN(CC(F)F)CC3)c(C)c(-c3c(C)noc3C)n2)c1 (stereo not drawn) [Example 205-1a],< 5 µM
11,CNC[C@@H](O)COc1ccc(Cl)c(-c2nc(-c3c(C)noc3C)c(C)c(C3CC3)n2)c1 [Example 205-3],< 5 µM
12,CCOC(=O)N1CCOC[C@@H]1CNc1nc(-c2cccc(OCC(O)CNC)c2)nc(-c2c(C)noc2C)c1C (stereo partly drawn) [Example 206-1a],< 5 µM
13,CNC[C@@H](O)COc1ccc(Cl)c(-c2nc(-c3c(C)noc3C)c(C)c(N3CC(F)C3)n2)c1 [Example 206-3],< 5 µM
14,CNCC(O)COc1cccc(-c2nc(NC3CCNC[C@H]3F)c(C)c(-c3c(C)noc3C)n2)c1 (stereo partly drawn) [Example 207-1a],< 5 µM
15,CNC[C@@H](O)COc1ccc(Cl)c(-c2nc(-c3c(C)noc3C)c(C)c(N3CCC3C)n2)c1 (stereo partly drawn) [Example 207-3],< 5 µM
16,CNCC(O)COc1cccc(-c2nc(NC3CCN(C(=O)OC(C)(C)C)C[C@H]3F)c(C)c(-c3c(C)noc3C)n2)c1 (stereo partly drawn) [Example 208-1a],< 5 µM
17,CNC[C@@H](O)COc1ccc(Cl)c(-c2nc(N[C@H]3CCN(C)C[C@H]3F)c(Cl)c(-c3c(C)noc3C)n2)c1 [Example 208-3],< 5 µM
18,CNCC(O)COc1cccc(-c2nc(-c3c(C)noc3C)c(C)c(N3CCO[C@@H](C)C3)n2)c1 (stereo partly drawn) [Example 209-1a],5 to 10 µM
19,CNC[C@@H](O)COc1ccc(Cl)c(-c2nc(N[C@H]3COC[C@@H]3O)c(C)c(-c3c(C)noc3C)n2)c1 [Example 209-3],< 5 µM
20,CNCC(O)COc1cccc(-c2nc(Nc3cn(C)cn3)c(C)c(-c3c(C)noc3C)n2)c1 (stereo not drawn) [Example 210-1a],< 5 µM
21,CNC[C@@H](O)COc1ccc(Cl)c(-c2nc(N[C@@H]3CCN(C)C[C@@H]3F)c(Cl)c(-c3c(C)noc3C)n2)c1 [Example 210-3],< 5 µM
22,CNCC(O)COc1cccc(-c2nc(-c3c(C)noc3C)c(C)c(N3CCO[C@H](C)C3)n2)c1 (stereo partly drawn) [Example 211-1a],< 5 µM
23,CNC[C@@H](O)COc1ccc(Cl)c(-c2nc(N[C@@H]3CCN(C4CC4)C[C@@H]3F)c(Cl)c(-c3c(C)noc3C)n2)c1 [Example 211-3],< 5 µM
24,CNCC(O)COc1cccc(-c2nc(NC3C4COCC43)c(C)c(-c3c(C)noc3C)n2)c1 (stereo not drawn) [Example 212-1a],< 5 µM
